Patent publication US9422265B2, “Process for the preparation of 3-(3-chloro-1H-pyrazol-1-yl)pyridine” (Dow AgroSciences LLC, priority 2014, dated 2016)

Key:
[1] = system: Green Peach Aphid (Myzus persicae) (MYZUPE); assay: Bioassay on Green Peach Aphid (GPA), cabbage seedling foliar spray; type: in vivo; conditions: 72 h, 200 ppm spray on cabbage seedlings, graded after three days, live aphids, Abbott's correction, read-out: MYZUPE rating (% Control of Mortality)
Description: Example A Bioassays on Green Peach Aphid (“GPA”) (Myzus persicae) (MYZUPE.)
Several molecules disclosed herein were tested against GPA using procedures described below.
Cabbage seedling grown in 3-in pots, with 2-3 small (3-5 cm) true leaves, were used as test substrate. The seedlings were infested with […] (wingless adult and nymph stages) one day prior to chemical application. Four posts with individual seedlings were used for each treatment. Test compounds (2 mg) were dissolved in 2 mL of acetone/methanol (1:1) solvent, forming stock solutions of 1000 ppm test compound. The stock solutions were diluted 5× with 0.025% Tween 20 in water to obtain the solution at 200 ppm test compound. A hand-held aspirator-type sprayer was used for spraying a solution to both sides of the cabbage leaves until runoff. Reference plants (solvent check) were sprayed with the diluent only containing 20% by volume acetone/methanol (1:1) solvent. Treated plants were held in a holding room for three days at approximately 25° C. and ambient relative humidity (RH) prior to grading. Evaluation was conducted by counting the number of live aphids per plant under a microscope. Percent Control was measured by using Abbott's correction formula (W. S. Abbott, “A Method of Computing the Effectiveness of an Insecticide” J. Econ. Entomol 18 (1925), pp. 265-267) as follows. […]

[2] = system: Sweetpotato Whitefly Crawler (Bemisia tabaci) (BEMITA); assay: Bioassay on Sweetpotato Whitefly Crawler, cotton plant foliar spray; type: in vivo; conditions: 200 ppm spray on cotton plants, graded after 8-9 days, live nymphs, Abbott's correction, read-out: BEMITA rating (% Control of Mortality)
Text: Example B Bioassays on Sweetpotato Whitefly Crawler (Bemisia tabaci) (BEMITA.)
Cotton plants grown in 3-inch pots, with 1 small (3-5 cm) true leaf, were used at test substrate. The plants were placed in a room with whitefly adults. Adults were allowed to deposit eggs for 2-3 days. After a 2-3 day egg-laying period, plants were taken from the adult whitefly room. Adults were blown off leaves using a hand-held Devilbliss sprayer (23 psi). Plants with egg infestation (100-300 eggs per plant) were placed in a holding room for 5-6 days at 82° F. and 50% RH for egg hatch and crawler stage to develop. Four cotton plants were used for each treatment. Compounds (2 mg) were dissolved in 1 mL of acetone solvent, forming stock solutions of 2000 ppm. The stock solutions were diluted 10× with 0.025% Tween 20 in water to obtain a test solution at 200 ppm. A hand-held Devilbliss sprayer was used for spraying a solution to both sides of cotton leaf until runoff. Reference plants (solvent check) were sprayed with the diluent only. Treated plants were held in a holding room for 8-9 days at approximately 82° F. and 50% RH prior to grading. Evaluation was conducted by counting the number of live nymphs per plant under a microscope.

| SMILES | mortality at 200 ppm [1] | mortality at 200 ppm [2] |
| --- | --- | --- |
| CCN(C(=O)CCSCCC(F)(F)F)c1cn(-c2cccnc2)nc1Cl [Compound 2-11, N-(3-chloro-1-(pyridin-3-yl)-1H-pyrazol-4-yl)-N-ethyl-3-((3,3,3-trifluoropropyl)thio)propanamide] | 80 to 100% | 80 to 100% |
| CCN(C(=O)CC[S+]([O-])CCC(F)(F)F)c1cn(-c2cccnc2)nc1Cl (stereo not shown) [Compound 2-12, N-(3-chloro-1-(pyridin-3-yl)-1H-pyrazol-4-yl)-N-ethyl-3-((3,3,3-trifluoropropyl)sulfoxo)propanamide] | 80 to 100% | 80 to 100% |
